Measurements taken from patent US20250249110A1, “ANTIMICROBIAL PEPTIDE DERIVATIVE AND USE THEREOF” (SICHUAN UNIVERSITY, priority 2016, published 2025).
Where no end group is shown, it is not given here.

What was measured:
[1] = test system: red blood cells; experiment: Hemolysis test in vitro; type: cell-based, human (healthy volunteers); details: FIG. 5B
Method: In the hemolysis test, DP7 and DP7-C at the same concentration were detected for the hemolysis of red blood cells. • 1. Take the blood of healthy volunteers and put into an anticoagulant tube and gently mix. • 2. Take out the anticoagulant, add isometric physiological saline, mix slowly and evenly, centrifuge at 400×g for 10 min, and discard the supernatant. • 3. Slowly mix the red blood cells and wash with PBS, centrifuge at 400×g for 10 min, discard the supernatant, and wash the cell precipitate with PBS for three times. • 4. Dilute with PBS to obtain 20% (v/v) red blood cell solution, which can be used immediately or stored at 4° C. for about 2 weeks (without hemolysis). • 5. Dilute the drug into a series of concentration gradients with PBS, add 100 μL of drug into a 96-well plate, take 100 μL of 2% Twain 20 as the positive control, add 100 μL of PBS to the negative control. Repeat the process 3 times for each concentration of drug. • 6. Dilute 20% (v/v) of red blood cell solution with PBS according to the volume ratio of 1:20, mix evenly and add to a 96-well plate, with the drug concentration of 100, 200, 400, 600, 800, 1000, 1200, 1600 μg/mL respectively, and incubate at 37° C. for 1 h. • 7. Incubate the mixture of drugs and red blood cells, centrifuge at 900×g for 10 min, add 160 μL of the supernatant to a new 96-well plate, and read the absorbance value at OD 450 nm. • 8. According to the absorbance value of A450, calculate the percentage of hemolysis corresponding to each concentration of drugs.
The calculation formula of the percentage of hemolysis is: […]

[2] = test system: staphylococcus aureus; details: background statement; cited from earlier work
[3] = test system: red blood cells; details: cited from earlier work
[4] = test system: Staphylococcus aureus 33591; experiment: Intra-abdominally infected mouse model; type: in vivo; details: intravenous administration; DP7-C 1 mg/kg, VAN 20 mg/kg; vs NS group, p<0.01
Method: The anti-infection activity of DP7-C is determined by the intra-abdominally infected models. […]
The experimental steps are as follows: • (1) Activate Staphylococcus aureus 33591 with MHB the day before the experiment, wash the activated strains twice with normal saline on the day of the experiment, and determine the concentration of bacterial liquid for later use. • (2) To establish an abdominally infected mouse model, intraperitoneally inject the bacterial solution of 1.5×10^8 cfu/0.5 mL into each mouse. • (3) Intravenously inject the drug by group after one hour of infection, 0.1 mL/mouse. • (4) 24 h later, intraperitoneally inject 5 mL of normal saline into the mouse, gently massage the abdomen, kill the mouse and disinfect with 75% alcohol. After 5 min, scissor the abdominal cavity epithelium, make a small opening in the abdominal cavity, draw ascites as much as possible from the opening with a 1 ml syringe, and then transfer to a sterile EP tube for mixing. • (5) Dilute with normal saline at a dilution of, for example, 10×, 100×, 1000× and 10000×; take three bacterial solutions with suitable concentrations, 20 μL each, coat the MHA plate and incubate in a bacteria incubator overnight. • (6) Select a plate with 20-200 colonies and convert and calculate the amount of bacteria per milliliter in 5 milliliters of ascites.

Compound	appearance of hemolysis test [1]	therapeutic effect in vivo [2]	lethality ([3]; high concentration, intravenous injection)	hemolysis of red blood cells ([3]; mouse, in vivo, iv)	average colony forming unit (CFU) of Staphylococcus aureus [4]
VQWRIRVAVIRK-NH2 [DP7, VQWRIRVAVIRK-NH2]	red blood cells are lysed	very good therapeutic effect	kill mice	cause hemolysis of red blood cells	–
CN[C@H](CC(C)C)C(=O)N[C@H]1C(=O)N[C@@H](CC(N)=O)C(=O)N[C@H]2C(=O)N[C@H]3C(=O)N[C@H](C(=O)N[C@H](C(=O)O)c4cc(O)cc(O)c4-c4cc3ccc4O)[C@H](O)c3ccc(c(Cl)c3)Oc3cc2cc(c3O[C@@H]2O[C@H](CO)[C@@H](O)[C@H](O)[C@H]2O[C@H]2C[C@](C)(N)[C@H](O)[C@H](C)O2)Oc2ccc(cc2Cl)[C@H]1O [VAN, Vancomycin, reference compound]	–	–	–	–	significantly lower than those in NS group
